Calls of active or inactive are those of the source. How the calls were made is not given here.

One assay deals with Bcl-2-like protein 1 (Homo sapiens) (UniProt Q07817). Kind of assay: Bim-Bcl-XL interaction inhibitors, potency, dose response, biochemical, multiplexed, bead flow cytometry, human Bcl-XL (AID 1322). On inhibition: test concentration not given here. As to conditions: Bead-based flow cytometry, Bim peptide-Bcl-XL binding, MCF. A general note: In flow cytometry, cells or beads pass a laser one at a time.
Sequence of Bcl-2-like protein 1 (Homo sapiens) (Q07817 whole entry, looked up): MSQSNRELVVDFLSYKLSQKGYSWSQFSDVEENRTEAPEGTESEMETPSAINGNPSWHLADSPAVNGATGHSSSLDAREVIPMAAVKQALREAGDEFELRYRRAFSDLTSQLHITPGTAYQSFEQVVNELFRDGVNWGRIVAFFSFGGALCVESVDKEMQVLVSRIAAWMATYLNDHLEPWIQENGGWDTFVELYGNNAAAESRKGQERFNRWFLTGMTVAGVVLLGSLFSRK
`O=C1NC(=O)C(=Cc2ccc(-c3cc(Cl)ccc3[N+](=O)[O-])o2)C(=O)N1`: the result was inactive.
For the compound `O=C(C[n+]1ccc(-c2nnc3n2CCC3)cc1)c1ccc(Cl)cc1`, the result was inactive.
Take `O=C(Cn1c(-c2ccccc2)noc1=O)N1CCC(Cc2ccccc2)CC1`: the result was inactive.
`COc1ccc(CN(CC(=O)NC2CCCC2)C(=O)CCC(=O)Nc2cc(C)on2)cc1`: the result was inactive.
Take `O=[N+]([O-])c1ccc2[nH]nc(-c3ccccc3)c2c1`: the outcome was inactive.
As to `Cc1nn(-c2ccc(Cl)c(Cl)c2)c(C)c1C(=O)O`, the result was inactive.
In the case of `O=C(C1=NN[C@@H]2C(=O)N(c3cccc(F)c3)C(=O)[C@H]12)c1ccc2ccccc2n1`, the result was inactive.
Still for that read-out and setting: as for `Clc1ccc2c(N/N=C/c3ccc(Br)cc3)ccnc2c1`, the entry is “inactive”; as for `COc1ccc(CC(=O)Nc2ccccc2Oc2ccccc2)cc1`, “inactive”.
For `Nc1cccc(-c2cn3cccnc3n2)c1`, the result was inactive.
Take `CCOC(=O)c1nc(Nc2ccc(N3CCC(C)CC3)cc2)c2ccccc2n1`: the outcome was inactive.
Consider `COc1cccc(/C=N/Nc2nn3cnnc3c3ccccc23)c1`, for which the EC50 result was “inactive”.
For `O=C1c2ccccc2C(=O)c2cc(S(=O)(=O)Nc3ccccc3)ccc21`, the outcome was inactive.
In the case of `O=C(C1CCC(Cn2c(=S)[nH]c3ccccc3c2=O)CC1)N1CCN(c2ccccn2)CC1` (stereo unspecified), the outcome was inactive.
In the case of `O=C(O)CC1S/C(=N/N=C/C=C/c2ccccc2[N+](=O)[O-])NC1=O` (stereo unspecified), the result was inactive.

Staying with this assay, now noted: Bead-based flow cytometry, Bim peptide-Bcl-XL binding, MCF.
For `Cc1ccc(N=Cc2c(O)n(-c3ccc4c(c3)OCO4)c(=O)c3ccccc23)cc1`, the inhibition entry was “inactive”.
On the same count and under the same terms, the entry for `S=c1[nH]cc(-c2ccccc2)n1-c1ccccc1Cl` is “inactive”.
In the case of `C#CCOCCOCCOCCNc1nc(N2CCN(C(=O)[C@H]([C@@H](C)CC)n3cc([C@@H](N)CC(C)C)nn3)CC2)nc(N2CCN(C(=O)[C@H](Cc3cc4ccccc4[nH]3)n3cc([C@@H](N)Cc4ccc(O)cc4)nn3)CC2)n1`, the inhibition entry was “inactive”.
On to `CNc1ccc(Br)cc(C(=O)/C=C/c2ccc(OC)cc2)c1=O`, for which the inhibition result was “inactive”.
For the compound `Cc1ccc(-c2nnc(Cc3ccc(Cl)cc3)o2)cc1`, the inhibition entry is “inactive”.
As for `Cc1cc(C)c2c(N)c3cccc(C)c3nc2n1`, the inhibition entry was “inactive”.
For `Cc1ccc(-c2cc(-c3ccccc3Cl)c(C#N)c(N)n2)o1`, the inhibition result is “inactive”.
In the case of `Cc1ccc(OCC(=O)NCc2ccccn2)c(Br)c1`, the inhibition entry is “inactive”.
As for `Clc1nssc1=Nc1ccccc1`, the inhibition entry is “inactive”.
`CC1Nc2ccccc2C(=O)N1NS(C)(=O)=O` (stereo unspecified): the inhibition entry is “inactive”.
Same read-out and setting: the entry for `O=C(Nc1cccc(-c2ccc3nncn3n2)c1)c1ccco1` is “inactive”.
On to `COc1ccc(C(=O)/C=C/c2cc(OC)c(O)c(OC)c2)c(F)c1`, for which the inhibition result was “inactive”.
Turning to `CCOC(=O)/C(=C\c1ccc(Cl)cc1)c1nc2sc(C)c(C)c2c(=O)[nH]1`, the inhibition entry was “inactive”.
On to `CNc1ccc(Br)cc(C(=O)/C=C/c2cc(OC)ccc2OC)c1=O`, for which the inhibition result is “inactive”.
Take `CCc1ccc(/C=C/C(=O)c2cc(Br)ccc(=O)c2O)cc1`: the inhibition entry was “inactive”.
Still for that read-out and setting: as for `O=C(Nc1ccc(N2CCOCC2)cc1)Nc1ccc2nc(-c3ccco3)c(-c3ccco3)nc2c1`, the entry is “inactive”.
For the compound `COc1cc(/C=N/NC(=O)c2ccc([N+](=O)[O-])cc2Cl)cc(Br)c1O`, the inhibition result is “inactive”.
For the compound `c1ccc(-c2nc(N3CCCCC3)nc3ccccc23)cc1`, the inhibition entry was “inactive”.
The same measure, in the same setting: the entry for `Cc1nonc1NC(=O)CSc1nnc(-c2ccoc2C)n1C` is “inactive”; for `Cc1ccc(-c2cc(-c3ccc(C)o3)nc(N)c2C#N)cc1` it is “inactive”.
On the same count and under the same terms, as for `CN1CCN(c2ccccc2N)CC1`, the entry is “inactive”.
For `CC(=O)Nc1ccc(-n2cc(-c3ccccc3)[nH]c2=S)cc1`, the inhibition result is “inactive”.
Regarding `O=C(c1cnccn1)N1CCN(c2ccccc2F)CC1`, the inhibition entry was “inactive”.
`Cc1cccc(OCC(=O)NCC(=O)N/N=C/c2cc(Br)ccc2OCc2ccccc2)c1`: the inhibition entry was “inactive”.
Consider `O=C(CCl)Nc1cccc2ncccc12`, for which the inhibition result is “inactive”.
Take `COC(=O)/C(=C/c1ccc(F)cc1)NC(C)=O`: the inhibition entry was “inactive”.
In the case of `CC(=O)OCCNc1cc(Sc2nc3ccccc3[nH]2)c2nonc2c1[N+](=O)[O-]`, the inhibition entry was “inactive”.
For the compound `O=S1(=O)N=C(N(CCO)/N=C/c2ccncc2)c2ccccc21`, the inhibition result is “inactive”.
Take `COc1ccccc1Cn1nnc2c(=O)[nH]c(C3CCN(C(=O)c4ccc(C)cc4)CC3)nc21`: the inhibition result is “inactive”.
Still for that read-out and setting: the entry for `CCOc1cc(S(=O)(=O)N2CCCCC2)ccc1F` is “inactive”; for `COc1ccc(CC(=O)Nc2ccc(C(=O)Nc3nccs3)cc2)cc1OC` it is “inactive”; for `Cc1ccc(/C=N/N(C)C2=NS(=O)(=O)c3ccccc32)o1` it is “inactive”.
Regarding `CCOc1ccc(C(=O)Nc2nnc(NC(=S)Nc3ccccc3)s2)cc1`, the inhibition entry was “inactive”.
For `COC(=O)Cc1ccc(NC(=S)N2CCN(c3cccc(O)c3)CC2)cc1`, the inhibition result was “inactive”.
Regarding `CCOc1ccccc1NC(=O)CSc1ccc2nnc(-c3cccnc3)n2n1`, the inhibition entry is “inactive”.
Same read-out and setting: the entry for `c1ccc2c(N3CCOCC3)nc(N3CCOCC3)nc2c1` is “inactive”.
Same read-out and setting: the entry for `CCOC(=O)CCCNC(=O)c1cncc(O)c1` is “inactive”; for `CCN(CC)c1nc(N)nc(N(c2ccccc2)c2ccccc2)n1` it is “inactive”.
For `COc1cccc(C(=O)/C=C/Nc2ccc(S(=O)(=O)Nc3onc(C)c3C)cc2)c1`, the inhibition result is “inactive”.
Same read-out and setting: as for `Cc1ccc(C(=O)N/N=C2/NC(=O)CC(C(=O)Nc3ccccc3)S2)cc1` (stereo unspecified), the entry is “inactive”; as for `Cc1nn(-c2ccc(Cl)cc2)c(Cl)c1/C=C(\C#N)C(N)=O`, “inactive”.
With `CCOC(=O)c1sc(N)c(C(=O)Nc2ccccc2OC)c1C`, the inhibition entry is “inactive”.
On to `CC(NC(=O)Nc1ccccn1)N1C(=O)C2C3C=CC(C3)C2C1=O` (stereo unspecified), for which the inhibition entry is “inactive”.
Turning to `O=C(COc1ccc(Br)cc1CNC1CCCCC1)NCCc1ccccc1`, the inhibition entry was “inactive”.
For `CCn1cc(C=C2C(=O)c3ccccc3C2=O)c2ccccc21`, the inhibition entry is “inactive”.
Turning to `N/C(Cc1ccc(Cl)c(Cl)c1)=N\OC(=O)c1cccs1`, the inhibition entry was “inactive”.
With `O=C(C[n+]1ccc(-c2nnc3n2CCC3)cc1)c1ccc(Cl)c(Cl)c1`, the inhibition result was “inactive”.
For the compound `COC(=O)c1ccc(C)c(NC(=O)CCNC(=O)c2ccc([N+](=O)[O-])cc2)c1`, the inhibition entry was “inactive”.
As for `Cc1ccc(O)c(NC2=C(Cl)C(=O)N(Cc3ccccc3)C2=O)c1`, the inhibition entry is “inactive”.
In the case of `CC(C)Cc1cc(-c2ccco2)c(C#N)c(N)n1`, the inhibition entry is “inactive”.
As for `O=C(/C=C/c1ccc(-c2ccccc2[N+](=O)[O-])o1)c1ccc(F)cc1`, the inhibition entry is “inactive”.
Regarding `Cc1nc2ccccc2n1CSc1ccccc1`, the inhibition result was “inactive”.
On the same count and under the same terms, the entry for `O=C1c2ccccc2C(=O)N1CN(C(=O)COc1ccc(Cl)cc1Cl)c1cccc(F)c1` is “inactive”; for `CC(C)COC(=O)/C(C#N)=C/c1cn(Cc2ccccc2)c2ccccc12` it is “inactive”.
Same read-out and setting: as for `CN=c1scc(-c2cccs2)n1/N=C/c1ccc(O)c(O)c1O`, the entry is “inactive”; as for `O=C(NCCCN1CCN(CCCNC(=O)c2cc([N+](=O)[O-])ccc2Cl)CC1)c1cc([N+](=O)[O-])ccc1Cl`, “inactive”.
`CCCOc1ccc(-c2c(C(=O)N/N=C/c3ccc(OC)cc3)nnn2-c2nonc2N)cc1`: the inhibition entry was “inactive”.
On to `CC1=NN(c2ccc(C)cc2)C(=O)/C1=C\c1ccc(Br)s1`, for which the inhibition entry is “inactive”.
Take `Cc1c(N2C(=O)c3ccc4c5c(ccc(c35)C2=O)CC4)c(=O)n(-c2ccccc2)n1C`: the inhibition entry was “inactive”.
On the same count and under the same terms, as for `CCOc1cc(CNc2ccc(N(C)C)cc2)cc(Br)c1OCC(=O)NC(C)(C)C`, the entry is “inactive”.
The same measure, in the same setting: the entry for `CSc1nnc2ccc(-c3cccs3)nn12` is “inactive”.
For the compound `COC(=O)c1cc(OC)c(OC)cc1NC(=O)Nc1cccc(C(C)=O)c1`, the inhibition result was “inactive”.
Regarding `Cc1ccccc1-n1nc(SCC(=O)O)sc1=S`, the inhibition entry was “inactive”.
As to `COc1cc(N=c2ssnc2Cl)cc(OC)c1`, the inhibition entry is “inactive”.
On the same count and under the same terms, the entry for `COc1ccc(NS(=O)(=O)c2cc(NC(=O)c3ccc(C)o3)ccc2N2CCCCC2)cc1` is “inactive”; for `COc1ccccc1Nc1nc(-c2c(C)nc3ncccn23)cs1` it is “inactive”; for `O=[N+]([O-])c1c(NCCO)cc(Sc2nc3ccccc3s2)c2nonc12` it is “inactive”.
As to `Cc1cc(C)c(C)c(S(=O)(=O)N2CCN(CC(=O)NC(=O)NCc3ccccc3)CC2)c1C`, the inhibition entry is “inactive”.
`Cc1noc(C)c1COc1ccc(C(=O)Nc2cccnc2)cc1`: the inhibition result is “inactive”.
Turning to `COc1ccc(OC)c2sc(NC(=O)c3ccc(Br)s3)nc12`, the inhibition result was “inactive”.
With `NC(=O)CSc1nnc(Cn2cnc3ccccc32)o1`, the inhibition result was “inactive”.
For the compound `CN(C)c1ccc(C(=O)/C=C/c2ccc(Br)cc2)cc1`, the inhibition result was “inactive”.
On to `Cc1ccc(-n2[nH]c(C)c(/C=N/Nc3ccc([N+](=O)[O-])cc3[N+](=O)[O-])c2=O)cc1C`, for which the inhibition entry is “inactive”.
The same measure, in the same setting: the entry for `CC(C)C(=O)N1CCN(c2ccc([N+](=O)[O-])cc2Cl)CC1` is “inactive”.
Turning to `O=C(CSc1nnc(-c2cccs2)n1Cc1ccco1)c1ccc2c(c1)OCO2`, the inhibition entry was “inactive”.
Still for that read-out and setting: the entry for `COc1ccc(CC(=O)Nc2ccc(-c3nc4cc(C)ccc4o3)c(O)c2)cc1OC` is “inactive”.
